Test results reported in patent US7691825B2, “Adenosine A2B receptor agonists” (King Pharmaceuticals Research and Development, Inc., priority 2006, dated 2010).
Where two headings read alike, the source gives them in different places.

Tests used:
[1] = biological target: T1, hA2A receptors expressed in CHO cells (Homo sapiens, UniProt P29274); assay: [3H]CGS21680 binding hA2A CHO cells; conditions: [3H]-CGS 21680, hA2A CHO cell membranes, 180 min at 25° C.; mean ± s.e. mean
T1 construct: expressed in transfected cells; host or cells: CHO cells (stably transfected, per Klotz et al. 1998); membrane preparation
T1 sequence (P29274 whole entry): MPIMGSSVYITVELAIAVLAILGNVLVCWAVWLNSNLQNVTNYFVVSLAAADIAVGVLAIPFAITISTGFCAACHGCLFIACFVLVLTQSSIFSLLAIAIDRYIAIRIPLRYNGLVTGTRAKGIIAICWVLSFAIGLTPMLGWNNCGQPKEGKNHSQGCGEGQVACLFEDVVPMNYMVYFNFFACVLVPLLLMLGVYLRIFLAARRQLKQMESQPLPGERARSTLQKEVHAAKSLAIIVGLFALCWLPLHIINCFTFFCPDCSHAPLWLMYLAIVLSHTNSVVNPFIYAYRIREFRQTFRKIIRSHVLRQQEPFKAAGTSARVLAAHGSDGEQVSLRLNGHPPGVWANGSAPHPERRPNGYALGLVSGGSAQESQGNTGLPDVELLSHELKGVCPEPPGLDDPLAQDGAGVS
Protocol: (§2) The cells are grown adherently and maintained in Dulbecco's Modified Eagles Medium with nutrient mixture F12 (DMEM/F12) without nucleosides, containing 10% fetal calf serum, penicillin (100 U/mL), streptomycin (100 μg/mL), L-glutamine (2 mM) and Geneticin (G418, 0.2 mg/mL) at 37° C. in 5% CO2/95% air. […] For membrane preparation the culture medium is removed and the cells are washed with PBS and scraped off T75 flasks in ice-cold hypotonic buffer (5 mM Tris HCl, 2 mM EDTA, pH 7.4). The cell suspension is homogenized and centrifuged for 30 min at 100,000×g. The membrane pellet is re-suspended in 50 mM Tris HCl buffer pH 7.4 and incubated with 2 UI/mL of adenosine deaminase for 30 min at 37° C.
(§3) Binding of 1 nM [^3H]—CHA to hA1CHO cells (50 μg of protein/assay) is performed using 50 mM Tris HCl buffer pH 7.4 and at least 6-8 different concentrations of agonists studied for an incubation time of 150 min at 25° C. […] Non-specific binding is determined in the presence of 10 μM of CHA and is about 20% of the total binding. […] Filter bound radioactivity is measured by scintillation spectrometry after addition of 5 mL of Aquassure.
(§4) All experimental data are expressed as the mean±standard error of the mean (s.e. mean) of three or four independent experiments performed in duplicate.

[2] = biological target: T2, hA1 receptors expressed in CHO cells (Homo sapiens, UniProt P30542); assay: [3H]CHA binding hA1 CHO cells
T2 sequence (P30542 1-326): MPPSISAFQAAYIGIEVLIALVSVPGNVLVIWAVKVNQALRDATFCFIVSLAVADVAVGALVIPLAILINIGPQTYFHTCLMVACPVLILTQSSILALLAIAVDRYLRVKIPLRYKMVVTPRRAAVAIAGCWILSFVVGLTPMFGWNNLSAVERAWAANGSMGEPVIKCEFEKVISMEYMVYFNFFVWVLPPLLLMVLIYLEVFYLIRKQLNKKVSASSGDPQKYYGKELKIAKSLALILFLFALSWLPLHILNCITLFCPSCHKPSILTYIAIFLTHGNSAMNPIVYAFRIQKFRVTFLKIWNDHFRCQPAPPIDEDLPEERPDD
Protocol: as §2, §3, §4

[3] = biological target: T3, hA2B receptors expressed in CHO cells (Homo sapiens, UniProt P29275); assay: cAMP assay hA2B CHO cells; type: cell-based; conditions: for Selectivity hA1/hA2B: ratio hA1 Ki / hA2B EC50; for Selectivity hA2A/hA2B: ratio hA2A Ki / hA2B EC50; for Selectivity hA3/hA2B: ratio hA3 IC50 / hA2B EC50; for EC50: stimulation of cAMP levels, hA2B CHO cells, mean ± s.e. mean
T3 construct: expressed in transfected cells; host or cells: CHO cells
T3 sequence (P29275 1-332): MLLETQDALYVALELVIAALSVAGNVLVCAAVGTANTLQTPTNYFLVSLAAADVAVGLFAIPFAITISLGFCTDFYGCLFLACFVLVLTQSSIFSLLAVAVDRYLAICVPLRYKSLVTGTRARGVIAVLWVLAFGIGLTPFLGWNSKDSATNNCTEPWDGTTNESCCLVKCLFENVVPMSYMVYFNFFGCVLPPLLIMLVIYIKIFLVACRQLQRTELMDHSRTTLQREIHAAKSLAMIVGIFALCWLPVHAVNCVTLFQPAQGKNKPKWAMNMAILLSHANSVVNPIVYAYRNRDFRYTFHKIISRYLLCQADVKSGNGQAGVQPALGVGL
Protocol: The effects of the tested compounds may be evaluated in functional assays measuring the stimulatory capability of the ligands to increase cAMP levels in hA2B receptors expressed in CHO cells. This may done as described by Pastorin et al. in “Pyrazolo[4,3-e]-1,2,4-triazolo[1,5-c]pyrimidine derivatives as adenosine receptor antagonists.
(§1) For cell preparation CHO cells transfected with human A2B or A3 receptors are washed with phosphate-buffered saline and diluted trypsin, and centrifuged for 10 min at 200 g. […] After the preincubation time at 37° C., the examined ligands (1 nM-10 μM) are added to the mixture and incubated for a further 5 min. The reaction is terminated by the addition of cold 6% trichloroacetic acid (TCA). The TCA suspension is centrifuged at 2000 g for 10 min at 4° C. and the supernatant is extracted four times with water saturated diethyl ether. […] Samples of cyclic AMP standard (0-10 pmoles) are added to each test tube containing the incubation buffer (trizma base 0.1 mM, aminophylline 8.0 mM, 2-mercaptoethanol 6.0 mM, pH 7.4) and [^3H]cyclic AMP in total volume of 0.5 mL. The binding protein previously incubated at 4° C. for 150 min, and after the addition of charcoal is centrifuged at 2000 g for 10 min. The clear supernatant is counted in a Beckman scintillation counter.

[4] = biological target: T4, human A3 receptors in CHO cells (Homo sapiens, UniProt P0DMS8); assay: cAMP assay hA3 CHO cells; type: cell-based; conditions: cyclic AMP assay, mean ± s.e. mean
T4 construct: expressed in transfected cells; host or cells: CHO cells
T4 sequence (P0DMS8 1-318): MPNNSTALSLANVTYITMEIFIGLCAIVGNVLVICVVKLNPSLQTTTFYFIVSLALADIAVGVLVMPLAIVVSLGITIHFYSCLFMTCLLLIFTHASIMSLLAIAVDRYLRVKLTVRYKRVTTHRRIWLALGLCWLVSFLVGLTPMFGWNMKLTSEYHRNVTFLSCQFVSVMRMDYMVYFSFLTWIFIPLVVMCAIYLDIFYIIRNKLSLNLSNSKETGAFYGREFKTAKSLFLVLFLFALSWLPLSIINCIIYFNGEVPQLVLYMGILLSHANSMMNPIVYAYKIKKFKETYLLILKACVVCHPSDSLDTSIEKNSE
Protocol: as §1

[5] = read-out: [3H]CHA binding hA1 CHO cells Ki, 1 nM [3H]-CHA, hA1 CHO cell membranes, 150 min at 25° C., mean ± s.e. mean

CCNC(=O)[C@H]1O[C@@H](n2cnc3c(NNC(=O)c4cccs4)nc(Cl)nc32)[C@H](O)[C@@H]1O [Compound 22b, (2S, 3S, 4R, 5R)-5-{2-Chloro-6-[N′-(thiophene-2-carbonyl)-hydrazino]-9H-purin-9-yl}3,4-dihydroxy-tetrahydrofuran-2-carboxylic acid ethylamide]
Ki [1]: > 1 µM
Ki [2, 5]: 0.737 ± 0.076 µM
Selectivity hA1/hA2B [3]: 3.68
Selectivity hA2A/hA2B [3]: >5.00
Selectivity hA3/hA2B [3]: >5.00
EC50 [3]: 0.2 ± 0.02 µM
IC50 [4]: > 1 µM
melting point: 189 to 190 °C

CCNC(=O)[C@H]1O[C@@H](n2cnc3c(NNC(=O)c4sccc4C)nc(Cl)nc32)[C@H](O)[C@@H]1O [Compound 23b]
Ki [1]: > 1 µM
Ki [2]: > 1 µM
Selectivity hA1/hA2B [3]: >2.94
Selectivity hA2A/hA2B [3]: >2.94
Selectivity hA3/hA2B [3]: >2.94
EC50 [3]: 0.34 ± 0.035 µM
IC50 [4]: > 1 µM
melting point: 160 to 161 °C

CCNC(=O)[C@H]1O[C@@H](n2cnc3c(NNC(=O)c4ccc[nH]4)nc(Cl)nc32)[C@H](O)[C@@H]1O [Compound 24b, (2S, 3S, 4R, 5R)-5-{2-Chloro-6-[N′-(1H-pyrrole-2-carbonyl)-hydrazino]-9H-purin-9-yl}-3,4-dihydroxy-tetrahydrofuran-2-carboxylic acid ethylamide]
Ki [1]: > 1 µM
Ki [2, 5]: 0.61 ± 0.032 µM
Selectivity hA1/hA2B [3]: 1.70
Selectivity hA2A/hA2B [3]: >2.78
Selectivity hA3/hA2B [3]: >2.78
EC50 [3]: 0.359 ± 0.036 µM
IC50 [4]: > 1 µM
melting point: 230 to 231 °C

CCNC(=O)[C@H]1O[C@@H](n2cnc3c(NNC(=O)c4cc(C)on4)nc(Cl)nc32)[C@H](O)[C@@H]1O [Compound 25b, (2S, 3S, 4R, 5R)-5-{2-Chloro-6-[N′-(5-methyl-isoxazole-3-carbonyl)-hydrazino]-9H-purin-9-yl}-3,4-dihydroxy-tetrahydrofuran-2-carboxylic acid ethylamide]
Ki [1]: > 1 µM
Ki [2]: > 1 µM
EC50 [3]: > 1 µM
IC50 [4]: > 1 µM
melting point: 182 to 183 °C

CCNC(=O)[C@H]1O[C@@H](n2cnc3c(NNC(=O)c4cc(-c5ccccc5)on4)nc(Cl)nc32)[C@H](O)[C@@H]1O [Compound 26b, (2S, 3S, 4R, 5R)-5-{2-Chloro-6-[N′-(5-phenyl-isoxazole-3-carbonyl)-hydrazino]-9H-purin-9-yl}-3,4-dihydroxy-tetrahydrofuran-2-carboxylic acid ethylamide]
Ki [1]: > 1 µM
Ki [2]: > 1 µM
EC50 [3]: > 1 µM
IC50 [4]: > 1 µM
melting point: 169 to 170 °C
